From patent publication US10316050B2, “PT (IV) complexes containing 4,4′-disubstituted-2,2′-bipyridyl and their use in cancer therapy” (THE BOARD OF REGENTS OF THE NEVADA SYSTEM OF HIGHER …, priority 2014, dated 2019)

What was measured:
Format in all cases: cell-based, human
[1] = tested on: cleaved-PARP in DU145 cells; test: Flow cytometry of cleaved-PARP, DU145; conditions: DU145, 10 μM Pt(IV)-4C or 2.5 μM Pt(IV)-5C for 2 hours, analyzed seven hours post treatment
Protocol: (§1) FIG. 12 is a series of histograms indicating Pt(IV)-4C and Pt(IV)-5C-induced cleavage of PARP in A549 cells (top panels) and in DU145 cells (bottom). A549 cells were treated for 5 hours with control (left), 25 μM Pt(IV)-4C (center), or 7.5 μM Pt(IV)-5C (right), and analyzed 12 hours post treatment. DU145 cells were treated for 2 hours with control (left), 10 μM Pt(IV)-4C (center), or 2.5 μM Pt(IV)-5C (right), and analyzed seven hours post treatment. Data are representative of three independent experiments.
(§2) Cells (200,000 to 250,000) were seeded in 60 mm dishes and incubated at 37° C. in a humidified, 5% CO2 atmosphere for 2 days to reach ˜50-60% confluence. The cells were treated with the platinum complexes as indicated, the floating cells were collected, and both attached and floating cells were washed 2× with PBS. The cells were resuspended in fresh medium and incubated as indicated. After incubation, both the floating and attached cells were collected and fixed by incubation in 4% formaldehyde for 10 minutes at room temperature. The fixed cells were pelleted and permeabilized by incubation in 500 μL of ice-cold methanol at 4° C. for 10 minutes. The samples were stored at −20° C. until analysis. For analysis, the cells were pelleted and washed 2× with 1% BSA in PBS. […] After washing 2× with 1% BSA, the cells were resuspended in PBS and analyzed on a Becton Dickinson FACS Calibur. […]

[2] = tested on: cleaved-PARP in A549 cells; test: Flow cytometry of cleaved-PARP, A549; conditions: A549, 25 μM Pt(IV)-4C or 7.5 μM Pt(IV)-5C for 5 hours, analyzed 12 hours post treatment
Protocol: as §1, §2

A549 cells = test: Annexin V/PI flow cytometry, A549; conditions: A549, 25 μM Pt(IV)-4C or 10 μM Pt(IV)-5C for 5 hours, analyzed 12 hours post treatment
Protocol: FIG. 11 is a series of graphs showing flow cytometry analysis of Annexin V/PI staining in A549 cells (top) and DU145 cells (bottom) treated with Pt(IV)-4C and Pt(IV)-5C. A549 cells were treated for 5 hours with control (left), 25 μM Pt(IV)-4C (center), or 10 μM Pt(IV)-5C (right), and analyzed 12 hours post treatment. DU145 cells were treated for 1 hour with control (left), 10 μM Pt(IV)-4C (center), or 2.5 μM Pt(IV)-5C (right) and analyzed 12 hours post treatment. Q1=PI+, represents necrotic cells; Q2=Annexin V/PI+, representing late apoptotic/necrotic cells; Q3=Annexin V+, representing early apoptotic cells; Q4=AnnexinV/PI−, representing live cells. Data are representative of three independent experiments.
Cells (˜50 to 60% confluent in 60 mm dishes) were treated as indicated with the platinum compound. After treatment, the floating cells were collected, and both attached and floating cells were washed 2× with PBS. The cells were resuspended in fresh medium and incubated as indicated. The cells were harvested (both the floating and attached cells were collected), counted, and pelleted. The cells were then washed two times with 5 mL of Ca^2+ and Mg^2+ free PBS. The pellets were then washed in 2.0 mL of 1× Annexin-V Binding buffer (BD Bioscience, San Jose, CAS) and centrifuged at 500×g for 5 minutes. […] A quantitative measure of these event shifts was accomplished by gating. […]

For “[Pt(IV)Cl2(OAc)2(4,4′-dibutoxy-2,2′-bipyridine)] [Pt(IV)-4C]”, the “fold increase of cleaved-PARP” value [1] was ~2 fold, the “fold increase of cleaved-PARP” value [2] was ~7 fold and the “Annexin V/PI staining (apoptosis)” value (A549 cells) was “induce apoptosis”.

For `CC(=O)[O][Pt]([Cl])([Cl])[O]C(C)=O.CCCCCOc1ccnc(-c2cc(OCCCCC)ccn2)c1` [Pt(IV)-5C, [Pt(IV)Cl2(OAc)2(4,4′-dipentoxy-2,2′-bipyridine)]], the “fold increase of cleaved-PARP” value [1] was ~2 fold, the “fold increase of cleaved-PARP” value [2] was ~7 fold and the “Annexin V/PI staining (apoptosis)” value (A549 cells) was “induce apoptosis”.
